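Each compound was tested at five concentrations against cells in 96-well plates for 48 hours. GI50 = concentration required for 50% inhibition of growth. The concentration for full growth arrest is given as TGI.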
Assays:
Experiment in all cases: NCI anticancer screen, dose series, 48 h
786-0 renal = system: 786-0 renal
A498 renal = system: A498 renal
A549 NSCLC = system: A549 NSCLC
ACHN renal = system: ACHN renal
BT-549 breast = system: BT-549 breast
CAKI-1 renal = system: CAKI-1 renal
CCRF-CEM leukemia = system: CCRF-CEM leukemia
COLO 205 colon = system: COLO 205 colon
DU-145 prostate = system: DU-145 prostate
EKVX NSCLC = system: EKVX NSCLC
HCC-2998 colon = system: HCC-2998 colon
HCT-116 colon = system: HCT-116 colon
HCT-15 colon = system: HCT-15 colon
HL-60(TB) leukemia = system: HL-60(TB) leukemia
HOP-62 NSCLC = system: HOP-62 NSCLC
HOP-92 NSCLC = system: HOP-92 NSCLC
HS 578T breast = system: HS 578T breast
HT29 colon = system: HT29 colon
IGROV1 ovarian = system: IGROV1 ovarian
K-562 leukemia = system: K-562 leukemia
KM12 colon = system: KM12 colon
LOX IMVI melanoma = system: LOX IMVI melanoma
M14 melanoma = system: M14 melanoma
MALME-3M melanoma = system: MALME-3M melanoma
MCF7 breast = system: MCF7 breast
MDA-MB-231 breast = system: MDA-MB-231 breast
MDA-MB-435 = system: MDA-MB-435
MDA-MB-468 breast = system: MDA-MB-468 breast
MOLT-4 leukemia = system: MOLT-4 leukemia
NCI-H226 lung = system: NCI-H226 lung
NCI-H23 lung = system: NCI-H23 lung
NCI-H460 lung = system: NCI-H460 lung
NCI-H522 lung = system: NCI-H522 lung
NCI/ADR-RES ovarian = system: NCI/ADR-RES ovarian
OVCAR-3 ovarian = system: OVCAR-3 ovarian
OVCAR-4 ovarian = system: OVCAR-4 ovarian
OVCAR-5 ovarian = system: OVCAR-5 ovarian
OVCAR-8 ovarian = system: OVCAR-8 ovarian
PC-3 prostate = system: PC-3 prostate
RPMI-8226 leukemia = system: RPMI-8226 leukemia
RXF 393 renal = system: RXF 393 renal
SF-268 CNS = system: SF-268 CNS
SF-295 CNS = system: SF-295 CNS
SF-539 CNS = system: SF-539 CNS
SK-MEL-2 melanoma = system: SK-MEL-2 melanoma
SK-MEL-28 melanoma = system: SK-MEL-28 melanoma
SK-MEL-5 melanoma = system: SK-MEL-5 melanoma
SK-OV-3 ovarian = system: SK-OV-3 ovarian
SN12C renal = system: SN12C renal
SNB-19 CNS = system: SNB-19 CNS
SNB-75 CNS = system: SNB-75 CNS
SR leukemia = system: SR leukemia
SW-620 colon = system: SW-620 colon
T-47D breast = system: T-47D breast
TK-10 renal = system: TK-10 renal
U251 CNS = system: U251 CNS
UACC-257 melanoma = system: UACC-257 melanoma
UACC-62 melanoma = system: UACC-62 melanoma
UO-31 renal = system: UO-31 renal

COc1cc(Nc2nc(O)c(/C=C3\C=Nc4ccccc43)s2)cc(OC)c1OC
GI50 (786-0 renal): 2.72 µM | TGI (786-0 renal): 11.9 µM | GI50 (A498 renal): 10.2 µM | TGI (A498 renal): 24.6 µM | GI50 (A549 NSCLC): 2.84 µM | TGI (A549 NSCLC): 16.5 µM | GI50 (ACHN renal): 3.2 µM | TGI (ACHN renal): 12 µM | GI50 (BT-549 breast): 0.81 µM | TGI (BT-549 breast): 10.7 µM | GI50 (CAKI-1 renal): 0.84 µM | TGI (CAKI-1 renal): 10.3 µM | GI50 (CCRF-CEM leukemia): 2.09 µM | TGI (CCRF-CEM leukemia): > 100 µM | GI50 (COLO 205 colon): 3.14 µM | TGI (COLO 205 colon): 16.4 µM | GI50 (DU-145 prostate): 4.63 µM | TGI (DU-145 prostate): 17.2 µM | GI50 (EKVX NSCLC): 8.02 µM | TGI (EKVX NSCLC): 22.2 µM | GI50 (HCC-2998 colon): 6.36 µM | TGI (HCC-2998 colon): 20.7 µM | GI50 (HCT-116 colon): 1.1 µM | TGI (HCT-116 colon): 10.2 µM | GI50 (HCT-15 colon): 1.79 µM | TGI (HCT-15 colon): 12.4 µM | GI50 (HL-60(TB) leukemia): 0.854 µM | TGI (HL-60(TB) leukemia): 11.1 µM | GI50 (HOP-62 NSCLC): 2.69 µM | TGI (HOP-62 NSCLC): 15.7 µM | GI50 (HOP-92 NSCLC): 1.98 µM | TGI (HOP-92 NSCLC): 6.38 µM | GI50 (HS 578T breast): 2.33 µM | TGI (HS 578T breast): 11.9 µM | GI50 (HT29 colon): 0.923 µM | TGI (HT29 colon): 10.1 µM | GI50 (IGROV1 ovarian): 4.91 µM | TGI (IGROV1 ovarian): 21.6 µM | GI50 (K-562 leukemia): 0.526 µM | TGI (K-562 leukemia): 31.1 µM | GI50 (KM12 colon): 0.977 µM | TGI (KM12 colon): 16.8 µM | GI50 (LOX IMVI melanoma): 2.82 µM | TGI (LOX IMVI melanoma): 13.9 µM | GI50 (M14 melanoma): 2.02 µM | TGI (M14 melanoma): 15.9 µM | GI50 (MALME-3M melanoma): 2.01 µM | TGI (MALME-3M melanoma): 15.2 µM | GI50 (MCF7 breast): 1.79 µM | TGI (MCF7 breast): 11.9 µM | GI50 (MDA-MB-231 breast): 4.77 µM | TGI (MDA-MB-231 breast): 18.8 µM | GI50 (MDA-MB-435): 0.28 µM | TGI (MDA-MB-435): 0.94 µM | GI50 (MDA-MB-468 breast): 0.657 µM | TGI (MDA-MB-468 breast): 6.23 µM | GI50 (MOLT-4 leukemia): 2.63 µM | TGI (MOLT-4 leukemia): 26 µM | GI50 (NCI-H226 lung): 3.18 µM | TGI (NCI-H226 lung): 17.4 µM | GI50 (NCI-H23 lung): 5.33 µM | TGI (NCI-H23 lung): 21.1 µM | GI50 (NCI-H460 lung): 2.1 µM | TGI (NCI-H460 lung): 14.3 µM | GI50 (NCI-H522 lung): 0.403 µM | TGI (NCI-H522 lung): 5.56 µM | GI50 (NCI/ADR-RES ovarian): 6.24 µM | TGI (NCI/ADR-RES ovarian): 24.2 µM | GI50 (OVCAR-3 ovarian): 0.517 µM | TGI (OVCAR-3 ovarian): 5.32 µM | GI50 (OVCAR-4 ovarian): 2.88 µM | TGI (OVCAR-4 ovarian): 10.6 µM | GI50 (OVCAR-5 ovarian): 4.58 µM | TGI (OVCAR-5 ovarian): 17.7 µM | GI50 (OVCAR-8 ovarian): 10.6 µM | TGI (OVCAR-8 ovarian): 27.2 µM | GI50 (PC-3 prostate): 2.59 µM | TGI (PC-3 prostate): 22.6 µM | GI50 (RPMI-8226 leukemia): 5.73 µM | TGI (RPMI-8226 leukemia): > 100 µM | GI50 (RXF 393 renal): 1 µM | TGI (RXF 393 renal): 5.8 µM | GI50 (SF-268 CNS): 3.56 µM | TGI (SF-268 CNS): 20 µM | GI50 (SF-295 CNS): 2.27 µM | TGI (SF-295 CNS): 13.4 µM | GI50 (SF-539 CNS): 2.49 µM | TGI (SF-539 CNS): 9.95 µM | GI50 (SK-MEL-2 melanoma): 1.45 µM | TGI (SK-MEL-2 melanoma): 12.2 µM | GI50 (SK-MEL-28 melanoma): 6.07 µM | TGI (SK-MEL-28 melanoma): 21 µM | GI50 (SK-MEL-5 melanoma): 2.46 µM | TGI (SK-MEL-5 melanoma): 14.1 µM | GI50 (SK-OV-3 ovarian): 2.56 µM | TGI (SK-OV-3 ovarian): 10.3 µM | GI50 (SN12C renal): 3.85 µM | TGI (SN12C renal): 15.1 µM | GI50 (SNB-19 CNS): 6.6 µM | TGI (SNB-19 CNS): 21.2 µM | GI50 (SNB-75 CNS): 1.24 µM | TGI (SNB-75 CNS): 3.63 µM | GI50 (SR leukemia): 0.394 µM | TGI (SR leukemia): 29.9 µM | GI50 (SW-620 colon): 3.1 µM | TGI (SW-620 colon): 21.8 µM | GI50 (T-47D breast): 3.58 µM | TGI (T-47D breast): 19.7 µM | GI50 (TK-10 renal): 8.56 µM | TGI (TK-10 renal): 22.8 µM | GI50 (U251 CNS): 3.27 µM | TGI (U251 CNS): 15.7 µM | GI50 (UACC-257 melanoma): 5.18 µM | TGI (UACC-257 melanoma): 21.1 µM | GI50 (UACC-62 melanoma): 4.75 µM | TGI (UACC-62 melanoma): 19.7 µM | GI50 (UO-31 renal): 3.43 µM | TGI (UO-31 renal): 13.7 µM

— PubChem BioAssay (NCI)
